Laboratory results from ChEMBL document CHEMBL5303573, “Mapping human microbiome drug metabolism by gut bacteria and their genes” (Nature, 2019).

Key:
[1] = bacteroides eggerthii, 12 h, 2 µM
Description: The drug is tested on Bacteroides eggerthii strain: DSM20697 for biotransformation. The drug concentrations were measured before and after a 12-h incubation by liquid-chromatography-coupled mass spectrometry (LC–MS)

[2] = The drug is tested on Bacteroides coprophilus strain: DSM18228 for biotransformation. The drug concentrations were measured before and after a 12-h incubation by liquid-chromatography-coupled mass spectrometry (LC–MS); settings: 2 µM
[3] = The drug is tested on Ruminococcus torques strain: ATCC27756 for biotransformation. The drug concentrations were measured before and after a 12-h incubation by liquid-chromatography-coupled mass spectrometry (LC–MS); assay type: ADME; design: dose 2 uM, timepoint 0 vs 12 hours; settings: 2 µM
[4] = The drug is tested on Ruminococcus gnavus strain: ATCC29149 for biotransformation. The drug concentrations were measured before and after a 12-h incubation by liquid-chromatography-coupled mass spectrometry (LC–MS); settings: mediterraneibacter gnavus, 2 µM
[5] = limosilactobacillus reuteri cf48-3a, 12 h, 2 µM
Description: The drug is tested on Lactobacillus reuteri CF48-3A strain: BEI HM-102 for biotransformation. The drug concentrations were measured before and after a 12-h incubation by liquid-chromatography-coupled mass spectrometry (LC–MS)

[6] = The drug is tested on Bacteroides dorei strain: DSM17855 for biotransformation. The drug concentrations were measured before and after a 12-h incubation by liquid-chromatography-coupled mass spectrometry (LC–MS); settings: phocaeicola dorei, 2 µM
[7] = The drug is tested on Bacteroides sp. WH2 strain: WH2 for biotransformation. The drug concentrations were measured before and after a 12-h incubation by liquid-chromatography-coupled mass spectrometry (LC–MS); settings: bacteroides sp. wh2, 12 h, 2 µM
[8] = enterocloster bolteae, 12 h, 2 µM
Description: The drug is tested on Clostridium bolteae strain: ATCCBAA-613 for biotransformation. The drug concentrations were measured before and after a 12-h incubation by liquid-chromatography-coupled mass spectrometry (LC–MS)

[9] = The drug is tested on Ruminococcus lactaris strain: ATCC29176 for biotransformation. The drug concentrations were measured before and after a 12-h incubation by liquid-chromatography-coupled mass spectrometry (LC–MS); settings: 2 µM
[10] = The drug is tested on Coprococcus comes strain: ATCC27758 for biotransformation. The drug concentrations were measured before and after a 12-h incubation by liquid-chromatography-coupled mass spectrometry (LC–MS); assay type: ADME; design: dose 2 uM, timepoint 0 vs 12 hours; settings: 2 µM
[11] = bifidobacterium adolescentis, 12 h, 2 µM
Description: The drug is tested on Bifidobacterium adolescentis strain: ATCC 15703 for biotransformation. The drug concentrations were measured before and after a 12-h incubation by liquid-chromatography-coupled mass spectrometry (LC–MS)

[12] = The drug is tested on Providencia stuartii strain: ATCC25827 for biotransformation. The drug concentrations were measured before and after a 12-h incubation by liquid-chromatography-coupled mass spectrometry (LC–MS); settings: 2 µM
[13] = The drug is tested on Enterococcus faecalis strain: V583 for biotransformation. The drug concentrations were measured before and after a 12-h incubation by liquid-chromatography-coupled mass spectrometry (LC–MS); settings: 2 µM
[14] = The drug is tested on Enterobacter cancerogenus strain: ATCC35316 for biotransformation. The drug concentrations were measured before and after a 12-h incubation by liquid-chromatography-coupled mass spectrometry (LC–MS); settings: 2 µM
[15] = The drug is tested on Bifidobacterium longum subsp. Infantis strain: CCUG52486 for biotransformation. The drug concentrations were measured before and after a 12-h incubation by liquid-chromatography-coupled mass spectrometry (LC–MS); settings: 2 µM
[16] = The drug is tested on Anaerotruncus colihominis strain: DSM17241 for biotransformation. The drug concentrations were measured before and after a 12-h incubation by liquid-chromatography-coupled mass spectrometry (LC–MS); settings: 2 µM
[17] = anaerostipes sp., 12 h, 2 µM
Description: The drug is tested on Anaerostipes sp. strain: fecal isolate for biotransformation. The drug concentrations were measured before and after a 12-h incubation by liquid-chromatography-coupled mass spectrometry (LC–MS)

[18] = bacteroides thetaiotaomicron, 12 h, 2 µM
Description: The drug is tested on Bacteroides thetaiotaomicron strain: 7330 for biotransformation. The drug concentrations were measured before and after a 12-h incubation by liquid-chromatography-coupled mass spectrometry (LC–MS)

[19] = The drug is tested on Anaerococcus hydrogenalis strain: DSM7454 for biotransformation. The drug concentrations were measured before and after a 12-h incubation by liquid-chromatography-coupled mass spectrometry (LC–MS); settings: 2 µM
[20] = The drug is tested on Clostridium sp. strain: fecal isolate for biotransformation. The drug concentrations were measured before and after a 12-h incubation by liquid-chromatography-coupled mass spectrometry (LC–MS); settings: 2 µM

Bacterial Biotransformation [1]	Bacterial Biotransformation [2]	Bacterial Biotransformation [3]	Bacterial Biotransformation [4]	Bacterial Biotransformation [5]	Bacterial Biotransformation [6]	Bacterial Biotransformation [7]	Bacterial Biotransformation [8]	Bacterial Biotransformation [9]	Bacterial Biotransformation [10]	Bacterial Biotransformation [11]	Bacterial Biotransformation [12]	Bacterial Biotransformation [13]	Bacterial Biotransformation [14]	Bacterial Biotransformation [15]	Bacterial Biotransformation [16]	Bacterial Biotransformation [17]	Bacterial Biotransformation [18]	Bacterial Biotransformation [19]	Bacterial Biotransformation [20]	Structure (SMILES)
Compound NOT metabolized	Compound NOT metabolized	Compound NOT metabolized	Compound NOT metabolized	Compound NOT metabolized	Compound NOT metabolized	Compound NOT metabolized	Compound NOT metabolized	Compound NOT metabolized	Compound NOT metabolized	Compound NOT metabolized	Compound NOT metabolized	Compound NOT metabolized	Compound NOT metabolized	Compound NOT metabolized	Compound NOT metabolized	Compound NOT metabolized	Compound metabolized	Compound NOT metabolized	Compound NOT metabolized	CCCCC(=O)N(Cc1ccc(-c2ccccc2-c2nnn[nH]2)cc1)[C@H](C(=O)O)C(C)C
Compound NOT metabolized	Compound NOT metabolized	Compound NOT metabolized	Compound NOT metabolized	Compound NOT metabolized	Compound NOT metabolized	Compound NOT metabolized	Compound NOT metabolized	Compound NOT metabolized	Compound NOT metabolized	Compound NOT metabolized	Compound NOT metabolized	Compound NOT metabolized	Compound NOT metabolized	Compound NOT metabolized	Compound NOT metabolized	Compound NOT metabolized	Compound NOT metabolized	Compound NOT metabolized	Compound NOT metabolized	CCc1nc(N)nc(N)c1-c1ccc(Cl)cc1 [PYRIMETHAMINE]
Compound NOT metabolized	Compound NOT metabolized	Compound NOT metabolized	Compound NOT metabolized	–	Compound metabolized	–	Compound NOT metabolized	Compound NOT metabolized	Compound NOT metabolized	Compound NOT metabolized	Compound NOT metabolized	Compound NOT metabolized	Compound NOT metabolized	Compound NOT metabolized	Compound NOT metabolized	Compound NOT metabolized	Compound metabolized	Compound NOT metabolized	Compound NOT metabolized	O=C(NC(Cc1cc(=O)[nH]c2ccccc12)C(=O)O)c1ccc(Cl)cc1 (stereo not drawn) [REBAMIPIDE]
Compound NOT metabolized	Compound NOT metabolized	Compound NOT metabolized	Compound NOT metabolized	Compound NOT metabolized	Compound NOT metabolized	Compound NOT metabolized	Compound NOT metabolized	Compound NOT metabolized	Compound NOT metabolized	Compound NOT metabolized	Compound NOT metabolized	Compound NOT metabolized	Compound NOT metabolized	Compound NOT metabolized	Compound NOT metabolized	Compound NOT metabolized	Compound NOT metabolized	Compound NOT metabolized	Compound NOT metabolized	COC(=O)[C@H]1[C@H]2C[C@@H]3c4[nH]c5cc(OC)ccc5c4CCN3C[C@H]2C[C@@H](OC(=O)c2cc(OC)c(OC)c(OC)c2)[C@@H]1OC [RESERPINE]
